Columns and labels:
Format in all cases: biochemical
collagenase (MMP1) = molecular target: T1, collagenase (MMP1) (Homo sapiens, UniProt P03956); assay: MMP1 enzyme inhibition assay (fluorogenic peptide substrate McaPLGLDpaAR); settings: protocol as for MMP9 assay
T1 sequence (P03956 100-469): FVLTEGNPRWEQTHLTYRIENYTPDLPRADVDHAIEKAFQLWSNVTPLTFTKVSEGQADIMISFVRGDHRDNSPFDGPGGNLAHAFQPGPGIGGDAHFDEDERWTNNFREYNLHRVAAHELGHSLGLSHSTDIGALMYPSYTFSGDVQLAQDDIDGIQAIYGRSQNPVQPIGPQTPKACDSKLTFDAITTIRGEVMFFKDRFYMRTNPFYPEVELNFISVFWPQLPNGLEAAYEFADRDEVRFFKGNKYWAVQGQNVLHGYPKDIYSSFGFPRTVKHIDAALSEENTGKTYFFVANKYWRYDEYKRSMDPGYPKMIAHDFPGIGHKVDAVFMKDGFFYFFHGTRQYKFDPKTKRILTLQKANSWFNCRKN
Procedure: (§1) Stock solutions were made up as follows: • Assay Buffer: 100 mM Tris-HCl pH 7.6 containing 100 mM NaCl, 10 mM CaCl2, and 0.05% Brij 35 • Substrate: 0.4 mM McaPLGLDpaAR (from Bachem) (0.437 mg/ml) stock solution in 100% DMSO (stored at −20° C.). Dilute to 8 μM in assay buffer. • Enzyme: Recombinant human 92 kDa gelatinase (MMP-9; APMA (4-aminophenyl • mercuric acetate)—activated if necessary) appropriately diluted in assay buffer.
(§2) Test Compounds were prepared initially as 10 mM compound solution in 100% DMSO, diluted to 1 mM in 100% DMSO, then serially diluted 3-fold in 100% DMSO across columns 1-10 of a 96-well microtitre plate Assay concentration range, 100 μM (column 1) to 5.1 nM (column 10)
(§3) The assay was performed in a total volume of 100 μl per well in 96-well microtitre plates. Activated enzyme (20 μl) was added to the wells followed by 20 μl of assay buffer. Appropriate concentrations of test compounds dissolved in 10 μl of DMSO were then added followed by 50 μl of McaPLGLDpaAR (8 μM, prepared by dilution of DMSO stock in assay buffer). For each assay ten concentrations of test compound were examined in duplicate. Control wells lack either enzyme or test compound. The reactions were incubated at 37° C. for 2 hours. The fluorescence at 405 nm was measured immediately with an SLT Fluostar fluorometer (SLT Labinstruments GmbH, Grödig, Austria) using 320 nm excitation, without stopping the reaction.
(§4) The effect of the test compound was determined from the dose response curve generated by the 10 duplicate concentrations of inhibitor. The IC50 (the concentration of compound required to give a 50% decrease in enzyme activity) was obtained by fitting data to the equation, Y=a+((b−a)/(1+(c/X)^d)). (Y=inhibition achieved for a particular dose; X=the dose in nM; a=minimum y or zero % inhibition; b=maximum y or 100% inhibition; c=is the IC50; d=is the slope). The result was rounded to one significant figure.
(§5) • Compounds were tested for inhibitory activity against collagenase (MMP1) in an assay using a coumarin-labelled peptide substrate, (7-methoxycoumarin-4-yl)acetyl-Pro-Leu-Gly-Leu-(3-[2,4-dinitrophenyl]-L-2,3-diaminopropionyl)-Ala-Arg-NH2 (McaPLGLDpaAR) (Knight et al, FEBS Lett. 1992; 263-266). The protocol for this assay was as described for the MMP9 assay above.

92 kDa gelatinase (MMP9) = 92 kDa gelatinase (MMP9) (Homo sapiens, UniProt P14780); assay: MMP9 enzyme inhibition assay (fluorogenic peptide substrate McaPLGLDpaAR); settings: recombinant human 92 kDa gelatinase, 37° C., 2 hours
Chain of 92 kDa gelatinase (MMP9) (P14780 107-707 limits assumed): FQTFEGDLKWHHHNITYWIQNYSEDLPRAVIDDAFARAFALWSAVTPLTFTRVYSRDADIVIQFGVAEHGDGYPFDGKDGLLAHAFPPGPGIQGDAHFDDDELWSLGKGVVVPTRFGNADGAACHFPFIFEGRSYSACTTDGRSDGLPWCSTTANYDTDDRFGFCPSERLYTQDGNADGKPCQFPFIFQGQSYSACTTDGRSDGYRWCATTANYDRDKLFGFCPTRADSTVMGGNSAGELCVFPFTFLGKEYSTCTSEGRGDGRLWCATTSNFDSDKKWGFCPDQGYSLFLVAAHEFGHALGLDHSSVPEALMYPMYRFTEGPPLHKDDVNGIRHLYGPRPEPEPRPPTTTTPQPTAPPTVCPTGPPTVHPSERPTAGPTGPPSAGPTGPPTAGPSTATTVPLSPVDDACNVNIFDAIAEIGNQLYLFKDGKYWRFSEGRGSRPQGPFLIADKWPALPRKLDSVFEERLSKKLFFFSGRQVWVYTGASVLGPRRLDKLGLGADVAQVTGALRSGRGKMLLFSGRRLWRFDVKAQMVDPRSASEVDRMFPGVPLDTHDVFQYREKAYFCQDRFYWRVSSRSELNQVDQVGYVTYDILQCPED
Procedure: Compounds were tested for inhibitory activity against 92 kDa gelatinase (MMP9) in an assay using a coumarin-labelled peptide substrate, (7-methoxycoumarin-4-yl)acetyl-Pro-Leu-Gly-Leu-(3-[2,4-dinitrophenyl]-L-2,3-diaminopropionyl)-Ala-Arg-NH2 (McaPLGLDpaAR) (Knight et al, FEBS Lett. 1992; 263-266).
as §1, §2, §3, §4

metalloelastase (MMP12) = metalloelastase (MMP12) (Homo sapiens, UniProt P39900); assay: MMP12 enzyme inhibition assay (fluorogenic peptide substrate McaPLGLDpaAR); settings: protocol as for MMP9 assay
Chain of metalloelastase (MMP12) (P39900 106-470): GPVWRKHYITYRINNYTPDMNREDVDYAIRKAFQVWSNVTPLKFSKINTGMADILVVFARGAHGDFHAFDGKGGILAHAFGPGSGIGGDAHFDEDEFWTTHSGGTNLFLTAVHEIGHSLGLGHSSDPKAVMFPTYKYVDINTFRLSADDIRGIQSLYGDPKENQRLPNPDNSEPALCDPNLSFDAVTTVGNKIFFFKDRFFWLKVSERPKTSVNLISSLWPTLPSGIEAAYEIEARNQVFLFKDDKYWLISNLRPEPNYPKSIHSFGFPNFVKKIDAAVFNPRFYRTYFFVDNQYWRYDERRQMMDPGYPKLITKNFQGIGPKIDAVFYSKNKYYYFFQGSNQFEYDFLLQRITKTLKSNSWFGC
Procedure: as §1, §2, §3, §4
as §5, with “Compounds” for “• Compounds”, “metalloelastase (MMP12)” for “collagenase (MMP1)”

| Structure (SMILES) | IC50 (collagenase (MMP1)) [µM] | IC50 (92 kDa gelatinase (MMP9)) [µM] | IC50 (metalloelastase (MMP12)) [µM] |
| --- | --- | --- | --- |
| CC(C)C[C@@H](C(=O)N[C@H](c1noc(-c2cccs2)n1)C(C)(C)C)[C@H](O)C(=O)O [Example 29, 3R-[2,2-Dimethyl-1S-(5-thiophen-2-yl-[1,2,4]oxadiazol-3-yl)-propylcarbamoyl]-2S-hydroxy-5-methyl-hexanoic Acid] | 1 to 10 | 1 to 10 | 0.1 to 1 |
| CC(C)C[C@@H](C(=O)N[C@H](c1noc(CC(C)(C)C)n1)C(C)(C)C)[C@H](O)C(=O)NO [Example 14, 2S-Hydroxy-3R-[1S-(5-(2,2-dimethyl-propyl)-[1,2,4]oxadiazol-3-yl)-2,2-dimethyl-propylcarbamoyl]-5-methyl Hexanohydroxamic Acid] | 1 to 10 | 1 to 10 | < 0.1 |
| CCc1nc([C@@H](NC(=O)[C@H](CC(C)C)[C@H](O)C(=O)NO)C(C)(C)C)no1 [Example 8, 2S-Hydroxy-3R-[1S-(5-ethyl-[1,2,4]oxadiazol-3-yl)-2,2-dimethyl-propylcarbamoyl]-5-methyl Hexanohydroxamic Acid] | 0.1 to 1 | 0.1 to 1 | < 0.1 |
| CC(C)C[C@@H](C(=O)N[C@H](c1noc(C2CC2)n1)C(C)(C)C)[C@H](O)C(=O)NO [Example 16, 2S-Hydroxy-3R-[1S-(5-cyclopropyl-[1,2,4]oxadiazol-3-yl)-2,2-dimethyl-propylcarbamoyl]-5-methyl Hexanohydroxamic Acid] | 0.1 to 1 | 0.1 to 1 | < 0.1 |
| C=CC[C@H](C(=O)NO)[C@@H](CC(C)C)C(=O)N[C@@H](Cc1ccccc1)c1nc(C)no1 [Example 22, 2S-Allyl-5-methyl-3R-[2-phenyl-1S-(3-methyl-[1,2,4]oxadiazol-5-yl)-ethylcarbamoyl]-hexanohydroxamic Acid] | < 0.1 | – | – |
| CC(C)C[C@@H](C(=O)N[C@H](c1noc(C(C)(C)C)n1)C(C)(C)C)[C@H](O)C(=O)NO [Example 12, 2S-Hydroxy-3R-[1S-(5-tert-butyl-[1,2,4]oxadiazol-3-yl)-2,2-dimethyl-propylcarbamoyl]-5-methyl Hexanohydroxamic Acid] | 0.1 to 1 | 0.1 to 1 | < 0.1 |
| CC(C)Cc1nc([C@@H](NC(=O)[C@H](CC(C)C)[C@H](O)C(=O)NO)C(C)(C)C)no1 [Example 11, 2S-Hydroxy-3R-[1S-(5-isobutyl-[1,2,4]oxadiazol-3-yl)-2,2-dimethyl-propylcarbamoyl]-5-methyl Hexanohydroxamic Acid] | 1 to 10 | 1 to 10 | < 0.1 |
| CC(C)C[C@@H](C(=O)N[C@H](c1noc(C(C)C)n1)C(C)(C)C)[C@H](O)C(=O)NO [Example 4, 2S-Hydroxy-3R-[1S-(5-isopropyl-[1,2,4]oxadiazol-3-yl)-2,2-dimethyl-propylcarbamoyl]-5-methyl Hexanohydroxamic Acid] | 0.1 to 1 | 0.1 to 1 | < 0.1 |
| CC(C)c1noc([C@@H](NC(=O)[C@H](CC2CCCC2)[C@H](O)C(=O)NO)C(C)(C)C)n1 [Example 32, 2R-Cyclopentylmethyl-3S,N4-dihydroxy-N1-[1S-(3-isopropyl-[1,2,4]oxadiazol-5-yl)-2,2-dimethyl-propyl]-succinamide] | < 0.1 | < 0.1 | < 0.1 |
| CC(C)C[C@@H](C(=O)N[C@H](c1nc(C(C)C)no1)C(C)(C)C)[C@H](O)C(=O)NO [Example 18, 2S-Hydroxy-3R-[1S-(3-isopropyl-[1,2,4]oxadiazol-3-yl)-2,2-dimethyl-propylcarbamoyl]-5-methyl Hexanohydroxamic Acid] | 0.1 to 1 | 0.1 to 1 | < 0.1 |
| CO[C@H](C(=O)NO)[C@@H](CC(C)C)C(=O)N[C@@H](Cc1ccccc1)c1nc(C)no1 [Example 25, 2S-Methoxy-5-methyl-3R-[1S-(3-methyl-[1,2,4]oxadiazol-5-yl)-2-phenyl-ethylcarbamoyl]-hexanohydroxamic Acid] | 0.1 to 1 | 0.1 to 1 | < 0.1 |
| Cc1ccc(-c2nc([C@@H](NC(=O)[C@H](CC(C)C)[C@H](O)C(=O)NO)C(C)(C)C)no2)cc1 [Example 15, 2S-Hydroxy-3R-[1S-(5-p-tolyl-[1,2,4]oxadiazol-3-yl)-2,2-dimethyl-propylcarbamoyl]-5-methyl Hexanohydroxamic Acid] | 0.1 to 1 | 0.1 to 1 | < 0.1 |
| CCOc1ccc(CCC[C@@H](C(=O)N[C@H](c2noc(-c3cccs3)n2)C(C)(C)C)[C@H](O)C(=O)NO)cc1 [Example 3] | > 10 | < 0.1 | < 0.1 |

Second part, the compound after the results:

| IC50 (collagenase (MMP1)) [µM] | IC50 (92 kDa gelatinase (MMP9)) [µM] | IC50 (metalloelastase (MMP12)) [µM] | Structure (SMILES) |
| --- | --- | --- | --- |
| 0.1 to 1 | < 0.1 | < 0.1 | C=CC[C@H](C(=O)NO)[C@@H](CC(C)C)C(=O)N[C@@H](Cc1ccccc1)c1nc(-c2ccccc2)no1 [Example 20, 2S-Allyl-5-methyl-3R-[2-phenyl-1S-(3-phenyl-[1,2,4]oxadiazol-5-yl)-ethylcarbamoyl]-hexanohydroxamic Acid] |
| > 10 | > 10 | 0.1 to 1 | CC(C)(C)[C@H](NC(=O)[C@H](C/C=C/c1ccccc1)[C@H](O)C(=O)NO)c1nc(-c2ccccc2)no1 [Example 31, N4-[2,2-Dimethyl-1S-(3-phenyl-[1,2,4]oxadiazol-5-yl)-propyl]-2S,N1-dihydroxy-3R-(3-phenyl-allyl)-succinamide] |
| – | > 10 | > 10 | CCCCCCCCCCCCCC[C@H](CC(=O)O)C(=O)N[C@H](c1nc(-c2ccccc2)no1)C(C)(C)C [Example 26, 3R-[2,2-Dimethyl-1S-(3-phenyl-[1,2,4]oxadiazol-5-yl)-propylcarbamoyl]-heptadecanoic Acid] |
| – | – | > 10 | CC(C)(C)[C@H](NC(=O)[C@H](CCCc1ccc(Cl)cc1)CC(=O)O)c1noc(-c2ccccc2)n1 [Example 28, 6-(4-Chloro-phenyl)-3R-[2,2-dimethyl-1S-(5-phenyl-[1,2,4]oxadiazol-3-yl)-propylcarbamoyl]-hexanoic Acid] |
| – | > 10 | > 10 | CCCCCCCCCCCCCCCC[C@H](CC(=O)O)C(=O)N[C@H](c1nc(-c2ccccc2)no1)C(C)(C)C [Example 27, 3R-[2,2-Dimethyl-1S-(3-phenyl-[1,2,4]oxadiazol-5-yl)-propylcarbamoyl]-nonadecanoic Acid] |
| 1 to 10 | 1 to 10 | < 0.1 | CC(C)C[C@@H](C(=O)N[C@H](c1noc(Cc2ccccc2)n1)C(C)(C)C)[C@H](O)C(=O)NO [Example 10, 2S-Hydroxy-3R-[1S-(5-benzyl-[1,2,4]oxadiazol-3-yl)-2,2-dimethyl-propylcarbamoyl]-5-methyl Hexanohydroxamic Acid] |
| 0.1 to 1 | 0.1 to 1 | < 0.1 | CC(C)C[C@@H](C(=O)N[C@H](c1nc(-c2ccccc2)no1)C(C)C)[C@H](O)C(=O)NO [Example 19, 2S, N1-Dihydroxy-3R-isobutyl-N4-[2-methyl-1S-(3-phenyl-[1,2,4]oxadiazol-5-yl)-propyl]-succinamide] |
